Usually pIC50 stands for −log10 of the IC50, conventionally taken in molar units. For orientation: inhibition means the change of the read-out against control, counted positive when it falls.

For this experiment, the target named is T1, recombinant human SAE enzyme (Homo sapiens, UniProt Q9UBT2).
T1 sequence (Q9UBT2 1-640): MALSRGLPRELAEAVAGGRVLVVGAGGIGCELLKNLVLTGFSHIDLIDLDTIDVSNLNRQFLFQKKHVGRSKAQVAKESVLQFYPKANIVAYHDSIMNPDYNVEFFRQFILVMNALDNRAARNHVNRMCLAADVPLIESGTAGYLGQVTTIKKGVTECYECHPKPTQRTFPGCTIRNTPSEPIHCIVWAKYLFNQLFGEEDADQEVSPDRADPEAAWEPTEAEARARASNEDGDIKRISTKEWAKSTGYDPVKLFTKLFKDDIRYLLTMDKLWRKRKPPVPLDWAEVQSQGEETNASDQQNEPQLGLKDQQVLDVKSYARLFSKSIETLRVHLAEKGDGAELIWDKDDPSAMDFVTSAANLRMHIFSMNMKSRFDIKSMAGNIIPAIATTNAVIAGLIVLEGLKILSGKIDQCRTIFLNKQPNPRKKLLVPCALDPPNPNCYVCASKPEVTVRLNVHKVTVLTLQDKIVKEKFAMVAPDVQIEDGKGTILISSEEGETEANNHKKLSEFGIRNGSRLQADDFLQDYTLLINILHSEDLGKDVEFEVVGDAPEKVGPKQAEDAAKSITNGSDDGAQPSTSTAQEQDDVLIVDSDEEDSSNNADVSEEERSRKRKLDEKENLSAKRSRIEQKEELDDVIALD
T1 sequence (Q9UBE0 1-346 partner): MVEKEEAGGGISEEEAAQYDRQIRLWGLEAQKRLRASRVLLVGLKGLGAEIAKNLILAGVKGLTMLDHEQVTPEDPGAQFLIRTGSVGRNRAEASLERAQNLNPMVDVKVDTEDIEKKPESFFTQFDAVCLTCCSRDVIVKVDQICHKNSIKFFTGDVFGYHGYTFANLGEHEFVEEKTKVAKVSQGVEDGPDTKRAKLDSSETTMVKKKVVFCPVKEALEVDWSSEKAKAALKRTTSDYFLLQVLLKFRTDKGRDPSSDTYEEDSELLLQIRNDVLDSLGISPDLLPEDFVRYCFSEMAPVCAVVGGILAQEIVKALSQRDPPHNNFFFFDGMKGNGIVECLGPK
In words: SAE HTRF Enzyme Assay. Type of experiment: biochemical. Conditions: for pIC50: class symbols A-C; for inhibition at 0.111 µM: compound concentration 0.111 μM, read-out: Percent Inhibition. The essentials:
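Measured as FRET after a 2 h antibody step: SAE (0.11 nM) thioester transfer of Sumo-Flag to Ubc9-GST, 0.5 μM ATP, 24° C for 105 min, quenched with 20 mM EDTA. Output is IC50 or percent inhibition at a single concentration.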

pIC50: −log10 of the molar value.

`NS(=O)(=O)OC[C@H]1C[C@@H](Nc2ncncc2C(=O)c2ccn(Cc3ccc(F)o3)c2)[C@@H](F)[C@@H]1O` [Compound I-231, [(1R,2R,3R,4R)-3-fluoro-4-{[5-({1-[(5-fluoro-2-furyl)methyl]-1H-pyrrol-3-yl}carbonyl)pyrimidin-4-yl]amino}-2-hydroxycyclopentyl]methyl sulfamate]: the pIC50 is more than 8.00 and the inhibition at 0.111 µM came out at 99%.
Turning to `NS(=O)(=O)OC[C@H]1C[C@@H](Nc2ncncc2C(=O)c2ccn(Cc3sccc3Cl)n2)C[C@@H]1O` [Compound I-232, [(1R,2S,4R)-4-{[5-({1-[(3-chloro-2-thienyl)methyl]-1H-pyrazol-3-yl}carbonyl)pyrimidin-4-yl]amino}-2-hydroxycyclopentyl]methyl sulfamate], the pIC50 was more than 8.00 and the inhibition at 0.111 µM is 97%.
For `NS(=O)(=O)OC[C@H]1C[C@@H](Nc2ccncc2C(=O)c2ccn(Cc3ccc(Cl)c(Cl)c3)c2)C[C@@H]1O` [Compound I-233, {(1R,2S,4R)-4-[(3-{[1-(3,4-dichlorobenzyl)-1H-pyrrol-3-yl]carbonyl}pyridin-4-yl)amino]-2-hydroxycyclopentyl}methyl sulfamate], in that order: more than 8.00 and 98%.
Regarding `CCC#CCn1ccc(C(=O)c2cncnc2N[C@@H]2C[C@H](COS(N)(=O)=O)[C@@H](O)C2)n1` [Compound I-234, {(1R,2S,4R)-2-hydroxy-4-[(5-{[1-(pent-2-yn-1-yl)-1H-pyrazol-3-yl]carbonyl}pyrimidin-4-yl)amino]cyclopentyl}methyl sulfamate], the pIC50 is 7.00 to 8.00 and the inhibition at 0.111 µM was 91%.
Regarding `NS(=O)(=O)OC[C@H]1C[C@@H](Nc2ncncc2C(=O)c2ccn(Cc3ccc(C(F)F)o3)n2)C[C@@H]1O` [Compound I-235, [(1R,2S,4R)-4-({5-[(1-{[5-(difluoromethyl)-2-furyl]methyl}-1H-pyrazol-3-yl)carbonyl]pyrimidin-4-yl}amino)-2-hydroxycyclopentyl]methyl sulfamate], the negative logarithm of the IC50 (pIC50) is more than 8.00 and the inhibition at 0.111 µM came out at 100%.
Turning to `COCC#CCn1ccc(C(=O)c2cncnc2N[C@@H]2C[C@H](COS(N)(=O)=O)[C@@H](O)[C@@H]2F)c1` [Compound I-236, {(1R,2R,3R,4R)-3-fluoro-2-hydroxy-4-[(5-{[1-(4-methoxybut-2-yn-1-yl)-1H-pyrrol-3-yl]carbonyl}pyrimidin-4-yl)amino]cyclopentyl}methyl sulfamate], the negative-log IC50 (pIC50) is 7.00 to 8.00 and the inhibition at 0.111 µM amounted to 54%.
Take `NS(=O)(=O)OC[C@H]1C[C@@H](Nc2ncncc2C(=O)c2ccn(Cc3cccc4nccn34)c2)[C@@H](F)[C@@H]1O` [Compound I-237, {(1R,2R,3R,4R)-3-fluoro-2-hydroxy-4-[(5-{[1-(imidazo[1,2-a]pyridin-5-ylmethyl)-1H-pyrrol-3-yl]carbonyl}pyimidin-4-yl)amino]cyclopentyl}methyl sulfamate]: the negative-log IC50 (pIC50) was 7.00 to 8.00 and the inhibition at 0.111 µM amounted to 85%.
Turning to `Cc1cc(C(=O)c2cncnc2N[C@@H]2C[C@H](COS(N)(=O)=O)[C@@H](O)C2)nn1Cc1cccc(Br)n1` [Compound I-238, [(1R,2S,4R)-4-{[5-({1-[(6-bromopyridin-2-yl)methyl]-5-methyl-1H-pyrazol-3-yl}carbonyl)pyrimidin-4-yl]amino}-2-hydroxycyclopentyl]methyl sulfamate], the pIC50 was more than 8.00 and the inhibition at 0.111 µM was 99%.
The corresponding values for `NS(=O)(=O)OC[C@H]1C[C@@H](Nc2ncncc2C(=O)c2ccn(Cc3cc(Br)ccc3Cl)n2)C[C@@H]1O` [Compound I-239, {(1R,2S,4R)-4-[(5-{[1-(5-bromo-2-chlorobenzyl)-1H-pyrazol-3-yl]carbonyl}pyrimidin-4-yl)amino]-2-hydroxycyclopentyl}methyl sulfamate] are more than 8.00 and 99%.
For `NS(=O)(=O)OC[C@H]1C[C@@H](Nc2ncncc2C(=O)c2ccn(Cc3cccc(Br)c3)n2)[C@H](O)[C@@H]1O` [Compound I-240, {(1R,2R,3S,4R)-4-[(5-{[1-(3-bromobenzyl)-1H-pyrazol-3-yl]carbonyl}pyrimidin-4-yl)amino]-2,3-dihydroxycyclopentyl}methyl sulfamate], in that order: more than 8.00 and 100%.
Turning to `NS(=O)(=O)OC[C@H]1C[C@@H](Nc2ncncc2C(=O)c2ccn(Cc3cc4ccccc4s3)n2)C[C@@H]1O` [Compound I-241, {(1R,2S,4R)-4-[(5-{[1-(1-benzothiophen-2-ylmethyl)-1H-pyrazol-3-yl]carbonyl}pyrimidin-4-yl)amino]-2-hydroxycyclopentyl}methyl sulfamate], the negative-log IC50 (pIC50) is more than 8.00 and the inhibition at 0.111 µM is 98%.
For the molecule `NS(=O)(=O)OC[C@H]1C[C@@H](Nc2ccncc2C(=O)c2ccn(Cc3cccc(Cl)c3)n2)[C@@H](F)[C@@H]1O` [Compound I-242, {(1R,2R,3R,4R)-4-[(3-{[1-(3-chlorobenzyl)-1H-pyrazol-3-yl]carbonyl}pyridin-4-yl)amino]-3-fluoro-2-hydroxycyclopentyl}methyl sulfamate], the negative logarithm of the IC50 (pIC50) is more than 8.00 and the inhibition at 0.111 µM amounted to 96%.
Regarding `NS(=O)(=O)OC[C@H]1C[C@@H](Nc2ncncc2C(=O)c2ccn(CCc3cccc(Br)c3)c2)[C@@H](F)[C@@H]1O` [Compound I-243, [(1R,2R,3R,4R)-4-{[5-({1-[2-(3-bromophenyl)ethyl]-1H-pyrrol-3-yl}carbonyl)pyrimidin-4-yl]amino}-3-fluoro-2-hydroxycyclopentyl]methyl sulfamate], the negative logarithm of the IC50 (pIC50) was more than 8.00 and the inhibition at 0.111 µM was determined as 99%.
Regarding `NS(=O)(=O)OC[C@H]1C[C@@H](Nc2ncncc2C(=O)c2cc(Cl)n(Cc3cccc(Br)c3)c2)[C@@H](F)[C@@H]1O` [Compound I-244, {(1R,2R,3R,4R)-4-[(5-{[1-(3-Bromobenzyl)-5-chloro-1H-pyrrol-3-yl]carbonyl}pyrimidin-4-yl)amino]-3-fluoro-2-hydroxycyclopentyl}methyl sulfamate], the pIC50 was more than 8.00 and the inhibition at 0.111 µM was found to be 98%.
For the molecule `NS(=O)(=O)OC[C@H]1C[C@@H](Nc2ncncc2C(=O)c2ccn(Cc3ccc(F)c(I)c3)n2)C[C@@H]1O` [Compound I-245, {(1R,2S,4R)-4-[(5-{[1-(4-fluoro-3-iodobenzyl)-1H-pyrazol-3-yl]carbonyl}pyrimidin-4-yl)amino]-2-hydroxycyclopentyl}methyl sulfamate], the pIC50 is more than 8.00 and the inhibition at 0.111 µM was 100%.
On to `NS(=O)(=O)OC[C@H]1C[C@@H](Nc2ccncc2C(=O)c2ccn(Cc3cccc(OC(F)F)c3)n2)C[C@@H]1O` [Compound I-246, [(1R,2S,4R)-4-{[3-({1-[3-(difluoromethoxy)benzyl]-1H-pyrazol-3-yl}carbonyl)pyridin-4-yl]amino}-2-hydroxycyclopentyl]methyl sulfamate], for which the pIC50 was more than 8.00 and the inhibition at 0.111 µM turned out to be 97%.
On to `NS(=O)(=O)OC[C@H]1C[C@@H](Nc2ncncc2C(=O)c2ccn(Cc3cccnc3)n2)[C@H](O)[C@@H]1O` [Compound I-247, {(1R,2R,3S,4R)-2,3-dihydroxy-4-[(5-{[1-(pyridin-3-ylmethyl)-1H-pyrazol-3-yl]carbonyl}pyrimidin-4-yl)amino]cyclopentyl}methyl sulfamate], for which the negative logarithm of the IC50 (pIC50) is more than 8.00 and the inhibition at 0.111 µM is 90%.

These data come from patent publication US9695154B2, “Heteroaryl inhibitors of sumo activating enzyme” (MILLENNIUM PHARMACEUTICALS, INC., priority 2013, dated 2017).
